Measured values reported in ChEMBL document CHEMBL6182898, “Design, synthesis and bioevaluation of novel hydrazide derivatives as enhancers of immunotherapy and DNA-damage response in antitumor therapy” (Eur J Med Chem, 2025).
Activity calls are given as the source filed them. No cut-off for these calls is given here.

What was measured:
[1] = Toxicity in male C57BL/6J mouse implanted with mouse B16-F10 cells assessed as histopathological damage in liver at 25 mg/kg, IG treated for 14 days consecutively in presence of NP-19 by H and E staining based analysis; assay type: organism-based; details: in vivo, po, 336 h, time 14 day
[2] = molecular target: Programmed cell death 1 ligand 1 (Mus musculus, UniProt Q9EP73); assay: Induction of PD-L1 degradation in mouse B16-F10 cells incubated for 24 hrs by Western blot analysis; assay type: cell-based
Sequence of Programmed cell death 1 ligand 1 (Q9EP73 whole entry): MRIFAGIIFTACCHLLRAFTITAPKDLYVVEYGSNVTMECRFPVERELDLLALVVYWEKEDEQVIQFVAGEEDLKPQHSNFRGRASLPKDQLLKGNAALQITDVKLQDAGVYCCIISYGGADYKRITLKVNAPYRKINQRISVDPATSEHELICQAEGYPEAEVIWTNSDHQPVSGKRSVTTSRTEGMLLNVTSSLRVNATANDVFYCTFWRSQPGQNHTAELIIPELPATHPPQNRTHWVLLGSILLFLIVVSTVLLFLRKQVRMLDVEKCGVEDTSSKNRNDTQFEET

4T1 [3] = assay: Induction of DNA damage in mouse 4T1 cells assessed as decrease in PARP1 level at 5 uM by immunofluorescence based analysis; assay type: functional, cell-based
[4] = Tmax in male Sprague-Dawley rat at 2 mg/kg, iv measured for 0.083 to 12 hrs by LC-MS/MS analysis; assay type: ADME, organism-based; details: in vivo, time 0.083-12 hrs
4T1 [5] = assay: Synergistic induction of DNA damage in mouse 4T1 cells implanted in mouse assessed as increase in gamma-H2AX level at 25 mg/kg/day in presence of olaparib by immunofluorescence based analysis; assay type: functional, organism-based
B16-F10 [6] = assay: Induction of antitumor immunity in mouse B16-F10 cells implanted in male C57BL/6J mouse assessed as increase in T cell infiltration at 25 mg/kg, IG treated for 14 days consecutively in presence of NP-19 by immunofluorescence based analysis; assay type: functional, organism-based; details: time 14.0 day
[7] = Toxicity in male C57BL/6J mouse implanted with mouse B16-F10 cells assessed as histopathological damage in kidney at 50 mg/kg, IG treated for 14 days consecutively by H and E staining based analysis; assay type: organism-based; details: in vivo, po, 336 h, time 14 day
4T1 [8] = assay: Synergistic induction of DNA damage in mouse 4T1 cells implanted in mouse assessed as decrease in PARP level at 25 mg/kg/day in presence of olaparib by Western blot analysis; assay type: functional, organism-based
[9] = AUMC (0 to t) in male Sprague-Dawley rat at 20 mg/kg, po measured for 0.083 to 12 hrs by LC-MS/MS analysis; assay type: ADME, organism-based; details: in vivo, time 0.083-12 hrs
[10] = Tmax in male Sprague-Dawley rat at 20 mg/kg, po measured for 0.083 to 12 hrs by LC-MS/MS analysis; assay type: ADME, organism-based; details: in vivo, time 0.083-12 hrs
B16-F10 [11] = assay: Antitumor activity against mouse B16-F10 cells implanted in male C57BL/6J mouse at 25 mg/kg, IG treated for 14 days consecutively in presence of NP-19 relative to control; assay type: functional; details: B16-F10, po, 336 h, time 14 day, read-out: TGI
[12] = molecular target: T1, Histone deacetylase 3 (Mus musculus) (UniProt O88895); assay: In vivo inhibition of HDAC3 in mouse B16-F10 cells implanted in male C57BL/6J mouse assessed as increase in Ac-H3 level at 50 mg/kg, IG treated for 14 days consecutively by immunofluorescence based analysis; assay type: functional, organism-based; details: time 14.0 day
T1 sequence (whole entry): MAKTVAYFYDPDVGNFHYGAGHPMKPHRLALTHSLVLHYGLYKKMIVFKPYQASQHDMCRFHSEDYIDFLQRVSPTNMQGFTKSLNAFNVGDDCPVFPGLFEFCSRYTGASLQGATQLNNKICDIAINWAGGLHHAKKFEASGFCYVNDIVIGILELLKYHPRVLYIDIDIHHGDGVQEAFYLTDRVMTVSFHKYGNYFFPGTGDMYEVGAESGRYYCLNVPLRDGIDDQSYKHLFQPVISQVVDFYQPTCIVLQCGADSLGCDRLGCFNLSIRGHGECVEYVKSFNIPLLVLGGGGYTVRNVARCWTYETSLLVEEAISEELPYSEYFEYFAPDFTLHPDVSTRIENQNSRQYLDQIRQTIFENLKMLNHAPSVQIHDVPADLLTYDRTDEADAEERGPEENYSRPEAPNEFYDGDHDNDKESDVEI

[13] = molecular target: Programmed cell death 1 ligand 1 (Mus musculus) (UniProt Q9EP73); assay: Induction of PD-L1 degradation in mouse B16-F10 cells at 5 uM incubated for 24 hrs in presence of Bafilomycin A1 by Western blot analysis; assay type: cell-based
Sequence of Programmed cell death 1 ligand 1 (Mus musculus) (Q9EP73 whole entry): as the sequence (Q9EP73 whole entry) above

4T1 [14] = assay: Induction of DNA damage in mouse 4T1 cells assessed as increase in gamma-H2AX level at 2 uM incubated for 24 hrs by Western blot analysis; assay type: functional, cell-based
4T1 [15] = assay: Induction of DNA damage in mouse 4T1 cells implanted in mouse assessed as decrease in PARP level at 50 mg/kg/day by Western blot analysis; assay type: functional, organism-based
4T1 [16] = assay: Synergistic induction of DNA damage in mouse 4T1 cells implanted in mouse assessed as decrease in PARP level at 25 mg/kg/day in presence of olaparib by IHC analysis; assay type: functional, organism-based
[17] = AUMC (0 to infinity) in male Sprague-Dawley rat at 2 mg/kg, iv measured for 0.083 to 12 hrs by LC-MS/MS analysis; assay type: ADME, organism-based; details: in vivo, time 0.083-12 hrs
4T1 [18] = assay: Induction of DNA damage in mouse 4T1 cells assessed as increase in gamma-H2AX level at 5 uM by immunofluorescence based analysis; assay type: functional, cell-based
[19] = VRT (0 to t) in male Sprague-Dawley rat at 2 mg/kg, iv measured for 0.083 to 12 hrs by LC-MS/MS analysis; assay type: ADME, organism-based; details: in vivo, time 0.083-12 hrs
B16-F10 [20] = assay: Induction of antitumor immunity in mouse B16-F10 cells implanted in male C57BL/6J mouse assessed as increase in T cell infiltration at 50 mg/kg, IG treated for 14 days consecutively by immunofluorescence based analysis; assay type: functional, organism-based; details: time 14.0 day
4T1 [21] = assay: Synergistic induction of DNA damage in mouse 4T1 cells implanted in mouse assessed as increase in gamma-H2AX level at 25 mg/kg/day in presence of olaparib by IHC analysis; assay type: functional, organism-based
[22] = molecular target: T1, Histone deacetylase 3 (Mus musculus); assay: In vivo inhibition of HDAC3 in mouse B16-F10 cells implanted in male C57BL/6J mouse assessed as decrease in PD-L1 level at 50 mg/kg, IG treated for 14 days consecutively by Western blot analysis; assay type: functional, organism-based; details: time 14.0 day
[23] = molecular target: Programmed cell death 1 ligand 1 (Mus musculus) (UniProt Q9EP73); assay: Induction of PD-L1 degradation in mouse B16-F10 cells assessed as increase in CTSB level at 0.313 to 10 uM incubated for 24 hrs by Western blot analysis; assay type: cell-based; details: dose 0.313-10 µM
[24] = MRT (0 to t) in male Sprague-Dawley rat at 20 mg/kg, po measured for 0.083 to 12 hrs by LC-MS/MS analysis; assay type: ADME, organism-based; details: in vivo, time 0.083-12 hrs
[25] = AUMC (0 to infinity) in male Sprague-Dawley rat at 20 mg/kg, po measured for 0.083 to 12 hrs by LC-MS/MS analysis; assay type: ADME, organism-based; details: in vivo, time 0.083-12 hrs
4T1 [26] = assay: Induction of DNA damage in mouse 4T1 cells implanted in mouse assessed as increase in gamma-H2AX level at 50 mg/kg/day by immunofluorescence based analysis; assay type: functional, organism-based
B16-F10 [27] = assay: Antitumor activity against mouse B16-F10 cells implanted in male C57BL/6J mouse at 50 mg/kg, IG treated for 14 days consecutively relative to control; assay type: functional; details: B16-F10, po, 336 h, time 14 day, read-out: TGI
[28] = AUC (0 to infinity) in male Sprague-Dawley rat at 2 mg/kg, iv measured for 0.083 to 12 hrs by LC-MS/MS analysis; assay type: ADME, organism-based; details: in vivo, time 0.083-12 hrs

## CCCNNC(=O)CCCCCCNC(=O)c1cnc(-c2ccc(NC(=O)OC(C)(C)C)cc2)s1
[1]
  Activity: Non-toxic
[2]
  DC50: 4.17 µM
4T1 [3]
  Activity: Active
[4]
  Tmax: 4.8 min
4T1 [5]
  Activity: Active
B16-F10 [6]
  Activity: Active
[7]
  Activity: Non-toxic
4T1 [8]
  Activity: Active
[9]
  AUMCt: 77.04 hr.hr.ug/L
[10]
  Tmax: 43.2 min
B16-F10 [11]
  inhibition in vivo at 25 mg/kg: 65%
[12]
  inhibition: Active
[13]
  Activity: inactive
4T1 [14]
  Activity: Active
4T1 [15]
  Activity: Active
4T1 [16]
  Activity: Active
[17]
  AUMC: 238.68 hr.hr.ug/L
4T1 [18]
  Activity: Active
[19]
  VRT(t): 0.55 h²
B16-F10 [20]
  Activity: Active
4T1 [21]
  Activity: Active
[22]
  inhibition: Active
[23]
  Activity: Active
[24]
  MRT last: 154 min
[25]
  AUMC: 97.74 hr.hr.ug/L
4T1 [26]
  Activity: Active
B16-F10 [27]
  inhibition in vivo at 50 mg/kg: 59%
[28]
  AUC(0-inf): 658 ng·h/mL
